From ChEMBL document CHEMBL1149481, “Inhibitors of epidermal growth factor receptor tyrosine kinase: optimisation of potency and in vivo pharmacokinetics” (Bioorg Med Chem Lett, 2006) come the findings set out here.

Series [1] in a line: Bioavailability in Wistar rat at 2 mg/kg, iv and 5 mg/kg, po. It counts as ADME, organism-based. To be noted: in vivo.
Series [2] can be described thus: AUC in nude mouse xenografted with human LoVo cell at 50 mg/kg, po. It counts as ADME, organism-based. Also noted: dose 50 mg/kg, route oral. To be noted: in vivo. On the technique in general: Xenograft models place foreign cells or tissue in a host animal.
A short description of series [3]: AUC in nude mouse xenografted with human LoVo cell at 50 mg/kg, po, twice daily. It counts as ADME, organism-based. Also noted: dose 50 mg/kg. To be noted: in vivo.
Series [4] can be described thus: AUC in nude mouse xenografted with human LoVo cell at 100 mg/kg, po. In kind it is ADME, organism-based. To be noted: in vivo. Also noted: dose 100 mg/kg, route oral.
For series [5], the system named is Rattus norvegicus. The experiment in a line: AUC in Wistar rat at 5 mg/kg, po normalized to 1 mg/kg. In kind it is ADME, organism-based, Plasma. To be noted: in vivo.
Series [6] is described as follows: Cmax in nude mouse xenografted with human LoVo cell at 100 mg/kg, po. It counts as ADME, organism-based. Also noted: dose 100 mg/kg, route oral. As to conditions: in vivo.
Series [7] is described as follows: Cmax in nude mouse xenografted with human LoVo cell at 50 mg/kg, po. In kind it is ADME, organism-based. Also noted: dose 50 mg/kg, route oral. To be noted: in vivo.
Series [8] can be described thus: Clearance in Wistar rat at 2 mg/kg, iv and 5 mg/kg, po. In kind it is ADME, organism-based. As to conditions: in vivo.
Series [9] can be described thus: Volume of distribution in Wistar rat at 2 mg/kg, iv and 5 mg/kg, po. It counts as ADME, organism-based. As to conditions: in vivo, read-out: Vdss.
Series [10] is described as follows: Cmax in nude mouse xenografted with human LoVo cell at 50 mg/kg, po, twice daily. More on the design: route oral, dose 50 mg/kg. To be noted: in vivo. In kind it is ADME, organism-based.
The nature of series [11]: Half life in rat. As to conditions: in vivo. It counts as ADME, organism-based.
Series [12] in a line: physchem.
Series [13] can be described thus: Bioavailability in Wistar rat at 2 mg/kg, iv and 10 mg/kg, po. In kind it is ADME, organism-based. As to conditions: in vivo.
Series [14] relates to Rattus norvegicus. The experiment in a line: AUC in Wistar rat at 10 mg/kg, po normalized to 1 mg/kg. As to conditions: in vivo. In kind it is ADME, organism-based, Plasma.
The nature of series [15]: Volume of distribution in rat. In kind it is ADME, organism-based. As to conditions: in vivo.
The nature of series [16]: Terminal half life in human. It counts as ADME, organism-based. To be noted: in vivo, read-out: beta t1/2 (converted).
Series [17] can be described thus: Terminal half life in cancer affected human. It counts as ADME, organism-based. To be noted: in vivo, read-out: beta t1/2 (converted).
Series [18] in a line: Volume of distribution in Wistar rat at 2 mg/kg, iv and 10 mg/kg, po. In kind it is ADME, organism-based. As to conditions: in vivo, read-out: Vdss.
In series [19] the test system is Mus musculus. The experiment in a line: Free drug level in mouse plasma at 50 mg/kg, po at 4 hrs. It counts as ADME, organism-based. More on the design: dose 50 mg/kg, route oral. As to conditions: in vivo.
For series [20], the system named is Mus musculus. The series is described as follows: Free drug level in mouse plasma at 50 mg/kg, po at 6 hrs. In kind it is ADME, organism-based. More on the design: dose 50 mg/kg, route oral. To be noted: in vivo.
Series [21] concerns Mus musculus. The experiment in a line: Free drug level in mouse plasma at 50 mg/kg, po at 2 hrs. It counts as ADME, organism-based. More on the design: dose 50 mg/kg, route oral. To be noted: in vivo.
The test system of series [22] is Mus musculus. The experiment in a line: Free drug level in mouse plasma at 50 mg/kg, po at 24 hrs. Also noted: dose 50 mg/kg, route oral. In kind it is ADME, organism-based. As to conditions: in vivo.
Series [23] in a line: in vivo. As to conditions: Wistar, rat, iv, 2 mg/kg.

The structures appear in SMILES notation.

In general, bioavailability refers to the share of a dose that reaches the circulation, judged against a reference dose that is usually intravenous. As a reminder, the AUC is the area under the concentration-time curve, a measure of exposure. A lower AUC goes with less exposure. A word on the Cmax: it is the highest concentration seen after dosing. `COc1cc2ncnc(Nc3cccc(Cl)c3F)c2cc1OC1CCN(S(C)(=O)=O)CC1` came in with a bioavailability in [1] of 45%. Moreover, the AUC amounted to 225 µM·h in series [2], 286 µM·h in [3], 450 µM·h in series [4] and 1.18 µM·h in series [5]. The Cmax worked out at 36800 nM in series [6], 30600 nM in series [7] and 23900 nM in [10]. Also, the clearance in [8] amounted to 13 mL/min/kg. For the same compound, in series [9], the Vd came to 1.5 L/kg. The compound also gave a half-life in series [11] of 1.6 h.
The term pKa denotes the pH at which an ionisable group is half protonated. Take `COc1cc2ncnc(Nc3cccc(Cl)c3F)c2cc1OCC1CCN(C)CC1`: the pKa in series [12] is 9.3.
On the same count and under the same terms, the figure for `COCCN1CCC(Oc2cc3c(Nc4cc(Cl)ccc4F)ncnc3cc2OC)CC1` is 8.1.
Compound `COCCN1CCC(Oc2cc3c(Nc4cccc(Cl)c4F)ncnc3cc2OC)CC1` gave a pKa in series [12] of 8.1. The compound also registered a bioavailability in series [1] of 30%. Besides, the AUC in [5] stood at 0.95 µM·h. In series [8], this compound returned a clearance of 11 mL/min/kg. Also, the Vd in [9] amounted to 1.3 L/kg.
In series [12], `COc1cc2ncnc(Nc3cccc(Cl)c3F)c2cc1OC1CCN(C)CC1` registered a pKa of 8.8. This compound also returned a bioavailability in series [1] of 74%. This compound also had an AUC in series [5] of 0.08 µM·h. The clearance in [8] amounted to 129 mL/min/kg. The Vd in [9] came to 20.8 L/kg.
For `COc1cc2c(Nc3ccc(Br)cc3F)ncnc2cc1OCC1CCN(C)CC1` [VANDETANIB], the pKa in series [12] is 9.3.
In the case of `COc1cc2ncnc(Nc3ccc(F)c(Cl)c3)c2cc1OCCCN1CCOCC1` [GEFITINIB], the AUC was determined as 78.7 µM·h in [2], 0.32 µM·h in series [14] and 85.9 µM·h in [4]. Besides, in series [13], the bioavailability was 56%. The Cmax was determined as 6700 nM in series [6] and 8100 nM in series [7]. For the same compound, the Vd in series [15] and in [18] was 5.8 L/kg in each case. Moreover, the values for the half-life in series [16], in series [17] and in [11] were 28 h, 37 h and 7 h, respectively. Besides, the Cp worked out at 130 nM in [19], 150 nM in series [20], 260 nM in series [21] and 10 nM in series [22].
`COc1cc2ncnc(Nc3cc(Cl)ccc3F)c2cc1OC1CCN(CC(N)=O)CC1` registered a pKa in [12] of 6.7.
In series [12], `COc1cc2ncnc(Nc3cccc(Cl)c3F)c2cc1OC1CCN(CC(N)=O)CC1` registered a pKa of 6.7. In series [1], this compound showed a bioavailability of 27%. The AUC in series [5] was 0.59 µM·h. This compound also came in with a clearance in series [8] of 16 mL/min/kg. For the same compound, in series [9], the Vd came out at 2.7 L/kg.
In turn, `COc1cc2ncnc(Nc3cc(Cl)ccc3F)c2cc1OC1CCN(C)CC1` yielded a pKa in series [12] of 8.8.
For the compound `COc1cc2ncnc(Nc3cc(Cl)ccc3F)c2cc1OCCCN1CCOCC1`, the clearance in series [23] turned out to be 16 mL/min/kg. The compound further had a bioavailability in [13] of 71%. This compound yielded an AUC in [14] of 1.64 µM·h. The Vd in [18] is 3.5 L/kg. Further, the Cp was 360 nM in series [19], 170 nM in [20], 300 nM in series [21] and 0 nM in series [22].
As for `COc1cc2ncnc(Nc3cccc(Cl)c3F)c2cc1OCCCN1CCOCC1`, the clearance in [23] stood at 29 mL/min/kg. The compound also registered a bioavailability in [13] of 73%. In addition, the AUC in series [14] is 0.94 µM·h. In series [18], the Vd was found to be 4.3 L/kg. Further, the Cp was determined as 680 nM in series [19], 410 nM in series [20], 430 nM in series [21] and 10 nM in series [22].
`COc1cc2ncnc(Nc3cc(Cl)ccc3F)c2cc1OCC1CCN(C)CC1` displayed a pKa in series [12] of 9.3.
On the same count and under the same terms, the figure for `COc1cc2ncnc(Nc3ccc(F)c(Cl)c3)c2cc1OCC1CCN(C)CC1` is 9.3; for `COc1cc2ncnc(Nc3ccc(F)c(Cl)c3)c2cc1OC1CCN(C)CC1` it is 8.8.
